The values below come from patent US20110294144A1, “SCREENING METHOD” (priority 2008, published 2011).

The subject of experiment [1] is mouse primary nerve cells infected with PRKX overexpression lentivirus. The experiment can be described thus: Neurite elongation (MAP2 staining) in mouse primary nerve cells infected with PRKX overexpression lentivirus. The experiment is classed as cell-based. The following applies: DIV14 mouse primary nerve cells, PRKX lentivirus MOI=2, forskolin 10 μM 2 days. As to the method: DIV14 mouse primary nerve cells were plated in a 48 well plate at a concentration of 3.5×10^3 cells/well and infected with PRKX or D172A overexpression lentivirus at MOI=2. Four days after the infection, forskolin was added at a concentration of 10 μM, and the cells were cultured for 2 days. The cells were fixed, nerve cell was labeled with anti-MAP2 monoclonal antibody as a primary antibody, anti-MAP2 antibody was stained with anti-mouse Alexa Fluor 488-labeled secondary antibody, and they were photographed by Discovery-1. The neurite elongation was measured by a metamorph software based on the images taken by Discovery-1. As a result, the decrease of the neurite elongation found with the PRKX overexpression lentivirus was suppressed by 76% by H-89.

In experiment [2] the test system is H4 cells infected with PRKX overexpression lentivirus. The experiment can be described thus: Cell death (DAPI positive cell count) in H4 cells infected with PRKX overexpression lentivirus. The experiment is classed as cell-based, human. Particulars: PRKX lentivirus MOI=1. As to the method:
H4 cells were plated in a 48 well plate at a concentration of 3.5×10^3 cells/well and, the next day, infected with PRKX or lacZ overexpression lentivirus at MOI=1. Two days later, H-89 was added at 3 or 10 μM. The next day, the cells were fixed, and the nucleus was stained with DAPI. DAPI positive cells were photographed by Discovery-1, and the number of DAPI positive cells was counted from the images by a Metamorph software. […] The cell death was suppressed by 29% or 46% by the addition of 3 μM or 10 μM H-89.

Experiment [3] has as its target T1, PRKX (Homo sapiens, UniProt P51817).
T1 sequence (P51817 1-358): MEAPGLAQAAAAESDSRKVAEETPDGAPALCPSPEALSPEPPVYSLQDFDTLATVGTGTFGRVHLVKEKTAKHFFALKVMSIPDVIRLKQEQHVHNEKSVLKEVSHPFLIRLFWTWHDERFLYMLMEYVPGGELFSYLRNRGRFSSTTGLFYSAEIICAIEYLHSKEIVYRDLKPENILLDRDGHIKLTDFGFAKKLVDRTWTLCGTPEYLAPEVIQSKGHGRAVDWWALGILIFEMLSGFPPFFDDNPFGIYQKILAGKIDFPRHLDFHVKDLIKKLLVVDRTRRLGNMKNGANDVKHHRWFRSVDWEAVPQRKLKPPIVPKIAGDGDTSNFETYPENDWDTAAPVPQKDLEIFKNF
As to the kind of experiment: pS214 tau / total tau ELISA in PRKX-transfected H4-tau cells. The following applies: H-89 10-0.1 μM, 2 hr, pPRKXkai, read-out: IC50 of suppression of the amount of tau S214 phosphorylation (ELISA, phosphorylated tau in total tau). Also noted: using change-1F and hPRKX-1R as primers to give mutant PRKX full-length DNA; expressed in transfected cells; host or cells: H4-tau cells (human H4 neuroglial cells stably expressing human tau), transiently transfected with pPRKXkai (pTARGET vector). The class given is cell-based. The method, then: pPRKXkai and pTARGET vectors were each transferred into H4-tau cells cultured overnight in a DMEM medium containing 10% FBS, using a Fugene6 transfection reagent. One day later, H-89 was added at a concentration of 10-0.1 μM. 2 hr later, the cells were dissolved in a cell lysis buffer, the amount of S214 phosphorylated tau was measured using a human pS214 tau ELISA kit, the amount of the total tau was measured using a human total tau ELISA kit, and the amount of phosphorylated tau in the total tau was examined. As a result, the amount of tau S214 phosphorylation was suppressed at an IC50 value of 0.7 μM.
A general note: In an ELISA, binding on a coated surface is turned into a signal by an enzyme label.

Experiment [4] has as its system mouse primary nerve cells infected with PRKX overexpression lentivirus. The experiment can be described thus: Immunostaining of S214 phosphorylated tau in mouse primary nerve cells infected with PRKX overexpression lentivirus. The class given is cell-based. Particulars: DIV12 mouse primary nerve cells, PRKX lentivirus MOI=2. The text has this: DIV12 mouse primary nerve cells plated in a 48 well plate at a concentration of 3.5×10^3 cells/well were infected with PRKX overexpression lentiviruses at MOI=2. Two days later, the cells were fixed with 4% para-formaldehyde, washed with phosphate buffer, and blocked with a phosphate buffer containing 1.5% BSA and 0.1% Triton X-100. Thereafter, as a primary antibody, an anti-S214 phosphorylated tau antibody was used to label phosphorylated tau, and an anti-MAP2 monoclonal antibody (Chemicon International) was used to label nerve cells. After washing, anti-S214 phosphorylated tau antibody was stained with anti-rabbit alexafluoro594-labeled secondary antibody, and anti-MAP2 antibody was stained with anti-mouse alexafluoro488-labeled secondary antibody (Invitrogen), and they were photographed using Discovery-1. As a result, the amount of tau S214 phosphorylation decreased due to H-89.

In experiment [5] the target is T1, PRKX. As to the kind of experiment: Western blot of S214 phosphorylated tau in H4-tau cells transfected with PRKX expression plasmid. Particulars: 10 μM H-89 added 2 hr before cell recovery. Also noted: using change-1F and hPRKX-1R as primers to give mutant PRKX full-length DNA; expressed in transfected cells; host or cells: H4-tau cells (human H4 neuroglial cells stably expressing human tau), transiently transfected with pPRKXkai (pTARGET vector). The experiment is classed as cell-based. The method, then: pFB-Neo-CMV-tau plasmid obtained by inserting a DNA fragment containing a wild-type human tau gene bound at the downstream of a CMV promoter into a multicloning site of pFB-neo vector (Stratagene) was transferred into H4 neuroglial cells according to the instructions of ViraPort(R) Retroviral Gene Expression System (Stratagene), and a cell confirmed to show expression of tau was used as a H4-tau cell. […] After transcription to a PVDF membrane, Western blot was performed using, as a primary antibody, an anti-S214 phosphorylated tau antibody (BioSource) for the detection of S214 phosphorylated tau, an Ab-3 antibody (Lab Vision) for the detection of total tau, and […], and according to the instructions of ECL Advance Western Blotting Detection Kit (Amarsham Bioscience), and each protein was detected by LAS-1000 plus lumino image analyzer (Fujifilm). […] The tranfected cell was dissolved in a cell lysis buffer (BioSource), the amount of S214 phosphorylated tau was measured using a human pS214 tau ELISA kit (BioSource), the amount of total tau was measured using a human total tau ELISA kit (BioSource), each according to the instructions, and the amount of phosphorylated tau in the total tau was examined. […]

Experiment [6] has as its target T1, PRKX. The experiment can be described thus: Cell-free tau S214 phosphorylation by recombinant PRKX protein, Western blot. The class given is biochemical. Also on record: purchased Invitrogen. The following applies: 30° C., 60 min. As to the method:
To a reaction mixture (40 mM Tris-HCl (pH 7.5), 20 mM MgCl2, 0.1 mg/ml BSA, 25 μl) containing recombinant PRKX protein (Invitrogen, 4 μg/ml) and recombinant tau protein (Wako Pure Chemical Industries, Ltd., 40 μg/ml) was added H-89 solution (40 mM Tris-HCl (pH 7.5), 0.1% DMSO, 20 mM MgCl2, 0.1 mg/ml BSA, 5 μl) to a concentration during reaction of 1 or 0.1 μM. As a control, 40 mM Tris-HCl (pH 7.5), 0.1% DMSO, 20 mM MgCl2, 0.1 mg/ml BSA solution (5 μl) were added. 25 μM ATP solution (40 mM Tris-HCl (pH 7.5), 20 mM MgCl2, 0.1 mg/ml BSA) was added by 20 μl to start the reaction and the mixture was left standing at 30° C. for 60 min. An SDS sample buffer was added to quench the reaction, the protein was separated using NuPAGE 4-12% Bis-Tris gel and transferred to a PVDF membrane. Western blot was performed using an anti-S214 phosphorylated tau antibody as a primary antibody and ECL Advance Western Blotting Detection Kit, and S214 phosphorylated tau was quantified by LAS-1000 plus lumino image analyzer. […] By the addition of H-89 at a final concentration of 1 and 0.1 μM, the tau S214 phosphorylation reaction decreased to 5% and 52%, respectively, of that without the addition.

Experiment [7] concerns the target T1, PRKX. The experiment can be described thus: In-cell infrared fluorescence imaging (Odyssey) of S214 phosphorylated tau and total tau in PRKX-transfected H4-tau cells. The experiment is classed as cell-based. Also noted: using change-1F and hPRKX-1R as primers to give mutant PRKX full-length DNA; expressed in transfected cells; host or cells: H4-tau cells (human H4 neuroglial cells stably expressing human tau), transiently transfected with pPRKXkai (pTARGET vector). Particulars: H-89 10-0.1 μM, 2 hr; H4-tau cells in 96 well plate, pPRKXkai; read-out: IC50 of suppression of the amount of tau S214 phosphorylation (infrared fluorescence imaging). As to the method:
H4-tau cells were plated in a DMEM medium containing 10% FBS in a 96 well plate at a concentration of 1×10^4 cells/well and, the next day, pPRKXkai and pTARGET vectors were each transferred thereinto using a Fugene6 transfection reagent. One day later, H-89 was added to the medium at a concentration of 10−0.1 μM. 2 hr later, the cells were fixed with 4% para-formaldehyde (Wako Pure Chemical Industries, Ltd.), washed with phosphate buffer, and blocked with phosphate buffer containing 1.5% BSA (Sigma Aldrich) and 0.1% Triton X-100 (Wako Pure Chemical Industries, Ltd.). Thereafter, as a primary antibody, an anti-S214 phosphorylated tau antibody was used to label phosphorylated tau and an anti-tau monoclonal antibody HT-7 (Pierce Biotechnology) was used to label total tau. After washing, they were reacted with an anti-rabbit Alexa Fluor 680-labeled secondary antibody (Invitrogen) and an anti-mouse IRD800CW-labeled secondary antibody (Wako Pure Chemical Industries, Ltd.), as secondary antibodies. After washing, the amounts of S214 phosphorylated tau and total tau were detected using 2 fluorescence system infrared fluorescence Imager Odyssey (ALOKA CO., LTD.). As a result, the amount of tau S214 phosphorylation was suppressed at an IC50 value of 0.7 μM.

Experiment [8] deals with T1, PRKX. The following applies: non-patent document 3; cited from earlier work.
Experiment [9] deals with H4-tau cells infected with PRKX overexpression lentivirus. As to the kind of experiment: Thioflavin S positive cell count (tau aggregation) in H4-tau cells infected with PRKX overexpression lentivirus. The following applies: 3 μM H-89, added three days after infection; PRKX lentivirus MOI=2.5. The experiment is classed as cell-based, human. The method, then: H4-tau cells were plated in a 24 well plate at a concentration of 1×10^5 cells/well and, the next day, infected with PRKX or lacZ overexpression lentivirus at MOI=1 or 2.5. Three days later, H-89 was added to a concentration of 3 μM. The next day, the cells fixed with 4% para-formaldehyde were washed with phosphate buffer, and blocked with phosphate buffer containing 1.5% BSA and 0.1% Triton X-100. Thereafter, the cells were stained by using S214 phosphorylated tau, and anti-S214 phosphorylated tau or total tau antibody as a primary antibody and anti-rabbit Alexa Fluor 594-labeled secondary antibody as a secondary antibody. Thereafter, the cells were left standing in 0.005% aqueous thioflavin S (Sigma Ltd.) solution for 5 min, and washed twice with 70% ethanol and once with water. Furthermore, the nucleus was stained with DAPI. The stained cells were photographed by Discovery-1, and the number of DAPI positive cells and the number of thioflavin S positive cells were counted by metamorph software (Molecular Device) based on the images taken by Discovery-1. In the PRKX infected well, the number of cells stained with thioflavin S having a β sheet structure increased 2-fold at MOI=1 and 5.2-fold at MOI=2.5 as compared to lacZ infected well. By containing with a tau specific antibody, almost all thioflavin S positive images were contained with tau and S214 phosphorylated tau. […]

The term IC50 denotes the concentration needed to halve the response being measured. As for `O=S(=O)(NCCNC/C=C/c1ccc(Br)cc1)c1cccc2cnccc12` [H-89], in experiment [1], the “suppression of the decrease of the neurite elongation” value amounted to 76%. The “suppression of cell death” value was found to be 29% in experiment [2] (3 μM H-89) and 46% in experiment [2] (10 μM H-89). In addition, the IC50 at PRKX [3] and on PRKX [7] was 700 nM throughout. Moreover, in experiment [4], the “amount of tau S214 phosphorylation” value is “decreased”. Besides, the “enhanced S214 phosphorylation of tau (Western blot)” value on PRKX [5] was “enhanced phosphorylation was not found”. Also, the “tau S214 phosphorylation reaction, % of that without the addition” value at PRKX [6] (H-89 final concentration 0.1 μM) came to 52%; at PRKX [6] (H-89 final concentration 1 μM) it was 5%. Besides, the “inhibition of PRKX” value at PRKX [8] was “inhibit PRKX”. Besides, in [9], the “suppression of the increase of thioflavin S stained cells” value was 75%.
